Laboratory results as given in patent publication US20150209373A1, “Progesterone Receptor Modulators for Use in Preventing or Treating Androgen Mediated Diseases” (PregLem SA, priority 2012, published 2015).

Legend:
rat = assay: 104 week rat carcinogenicity assay (PGL09-005); assay type: in vivo; details: 104 weeks
Experimental: (§1) During a 104 week rat carcinogenicity assay, we observed seminal vesicles and prostate contraction at dose-levels of 1 (seminal vesicles, only), 3 and 10 mg/kg/day (PGL09-005). Similarly, during 4 and 26 week assays in the mouse, decreases in epididymidis weights were recorded at dose-levels ranging between 15 and 300 mg/kg/day (Tables 1 and 2).

progesterone receptor = molecular target: T1, progesterone receptor (Homo sapiens, UniProt P06401); assay: in vitro nuclear receptor selectivity profile - progesterone receptor; assay type: binding
T1 sequence (P06401 1-933): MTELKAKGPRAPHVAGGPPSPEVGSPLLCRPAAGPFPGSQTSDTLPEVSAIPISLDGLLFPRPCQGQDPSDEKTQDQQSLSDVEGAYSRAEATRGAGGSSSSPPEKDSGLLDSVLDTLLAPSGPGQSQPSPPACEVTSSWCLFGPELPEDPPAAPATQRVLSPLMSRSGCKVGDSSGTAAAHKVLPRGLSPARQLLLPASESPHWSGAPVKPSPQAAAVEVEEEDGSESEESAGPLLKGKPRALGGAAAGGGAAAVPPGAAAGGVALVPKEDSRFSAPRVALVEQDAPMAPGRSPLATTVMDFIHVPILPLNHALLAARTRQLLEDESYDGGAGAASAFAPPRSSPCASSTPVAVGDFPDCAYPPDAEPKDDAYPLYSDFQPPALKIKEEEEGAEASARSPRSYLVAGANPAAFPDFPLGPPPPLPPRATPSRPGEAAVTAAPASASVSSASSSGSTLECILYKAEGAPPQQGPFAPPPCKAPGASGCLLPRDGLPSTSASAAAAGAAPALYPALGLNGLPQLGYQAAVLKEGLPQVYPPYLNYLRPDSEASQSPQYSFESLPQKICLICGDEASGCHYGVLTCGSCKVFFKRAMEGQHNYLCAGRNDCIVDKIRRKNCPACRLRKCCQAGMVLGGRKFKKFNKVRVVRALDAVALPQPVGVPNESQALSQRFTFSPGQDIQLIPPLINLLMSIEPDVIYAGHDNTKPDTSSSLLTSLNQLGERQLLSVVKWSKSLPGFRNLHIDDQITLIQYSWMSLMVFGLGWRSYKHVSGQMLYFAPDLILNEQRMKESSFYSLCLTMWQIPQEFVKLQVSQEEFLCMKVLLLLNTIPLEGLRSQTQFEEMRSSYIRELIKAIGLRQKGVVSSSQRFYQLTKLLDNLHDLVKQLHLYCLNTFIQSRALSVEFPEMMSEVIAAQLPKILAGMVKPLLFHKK

androgen receptor = molecular target: T2, androgen receptor (Homo sapiens, UniProt P10275); assay: in vitro nuclear receptor selectivity profile - androgen receptor; assay type: binding
T2 sequence (P10275 1-920): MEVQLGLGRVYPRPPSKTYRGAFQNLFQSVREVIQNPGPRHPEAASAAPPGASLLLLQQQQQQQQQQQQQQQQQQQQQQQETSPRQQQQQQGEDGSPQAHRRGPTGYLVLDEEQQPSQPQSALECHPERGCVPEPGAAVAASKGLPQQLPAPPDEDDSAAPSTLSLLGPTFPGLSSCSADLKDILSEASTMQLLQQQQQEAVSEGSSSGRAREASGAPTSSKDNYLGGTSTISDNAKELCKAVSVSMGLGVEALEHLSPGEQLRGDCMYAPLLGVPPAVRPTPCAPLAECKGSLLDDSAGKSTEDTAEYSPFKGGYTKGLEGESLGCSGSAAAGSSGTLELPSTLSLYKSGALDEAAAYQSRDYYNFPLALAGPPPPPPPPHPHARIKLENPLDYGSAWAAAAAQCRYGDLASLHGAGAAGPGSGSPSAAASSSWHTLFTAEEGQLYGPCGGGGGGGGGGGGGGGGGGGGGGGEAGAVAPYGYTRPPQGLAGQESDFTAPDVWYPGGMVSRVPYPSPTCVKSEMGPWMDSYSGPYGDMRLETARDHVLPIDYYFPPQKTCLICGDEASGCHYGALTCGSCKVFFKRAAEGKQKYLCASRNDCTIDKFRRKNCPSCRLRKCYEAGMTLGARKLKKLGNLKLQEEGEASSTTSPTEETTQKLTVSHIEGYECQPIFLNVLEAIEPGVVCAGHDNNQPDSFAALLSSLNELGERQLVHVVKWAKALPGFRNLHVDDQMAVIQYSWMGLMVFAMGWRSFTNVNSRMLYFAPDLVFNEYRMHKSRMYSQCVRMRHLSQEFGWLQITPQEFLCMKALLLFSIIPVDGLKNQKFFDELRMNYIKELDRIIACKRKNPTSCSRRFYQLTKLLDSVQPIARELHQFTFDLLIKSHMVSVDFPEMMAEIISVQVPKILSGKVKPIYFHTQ

mice [1] = assay: 26 week oral carcinogenicity study with UPA in mice - organ weights; assay type: in vivo; details: 26 week oral carcinogenicity study in mice
Experimental: as §1, with “2). Ulipristal Acetate Anti-Androgenic Effect in a 26 Week Oral Carcinogenicity Study in Mice” for “2).”

oestrogen receptors = assay: in vitro nuclear receptor selectivity profile - oestrogen receptors; assay type: binding
glucocorticoid receptor = molecular target: T3, glucocorticoid receptor (Homo sapiens, UniProt P04150); assay: in vitro nuclear receptor selectivity profile - glucocorticoid receptor; assay type: binding
T3 sequence (P04150 1-777): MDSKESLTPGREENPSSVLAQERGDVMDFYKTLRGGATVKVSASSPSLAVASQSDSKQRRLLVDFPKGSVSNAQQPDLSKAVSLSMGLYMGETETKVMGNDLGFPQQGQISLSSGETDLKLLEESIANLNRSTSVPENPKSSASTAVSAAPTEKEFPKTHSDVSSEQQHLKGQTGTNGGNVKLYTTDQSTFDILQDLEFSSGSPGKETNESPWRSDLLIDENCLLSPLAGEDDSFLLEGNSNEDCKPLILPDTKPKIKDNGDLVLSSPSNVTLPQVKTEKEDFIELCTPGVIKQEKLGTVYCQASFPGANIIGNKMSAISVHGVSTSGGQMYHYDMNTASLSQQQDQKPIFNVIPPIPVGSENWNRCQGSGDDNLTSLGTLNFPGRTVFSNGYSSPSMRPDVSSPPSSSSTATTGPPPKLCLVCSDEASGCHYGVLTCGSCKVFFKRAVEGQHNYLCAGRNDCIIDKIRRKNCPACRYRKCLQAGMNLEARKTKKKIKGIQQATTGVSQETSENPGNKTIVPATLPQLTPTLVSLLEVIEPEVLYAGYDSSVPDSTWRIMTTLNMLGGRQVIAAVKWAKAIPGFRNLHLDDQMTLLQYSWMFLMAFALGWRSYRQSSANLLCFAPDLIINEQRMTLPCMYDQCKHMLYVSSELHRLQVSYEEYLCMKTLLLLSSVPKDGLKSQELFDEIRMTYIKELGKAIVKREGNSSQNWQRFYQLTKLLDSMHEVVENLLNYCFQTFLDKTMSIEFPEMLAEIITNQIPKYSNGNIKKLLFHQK

mice [2] = assay: 4 week oral toxicity study with UPA in mice - organ weights; assay type: in vivo; details: 4 week oral toxicity study in mice
Experimental: as §1, with “2). Ulipristal Acetate Anti-Androgenic Effect in a 4 Week Oral Toxicity Study in Mice” for “2).”

affinity for the progesterone receptor (progesterone receptor): high affinity
affinity for the androgen receptor (androgen receptor): much lower affinity
affinity for the oestrogen receptors (oestrogen receptors): no affinity
affinity for the glucocorticoid receptor (glucocorticoid receptor): high affinity
SMILES: CC(=O)O[C@]1(C(C)=O)CC[C@H]2[C@@H]3CCC4=CC(=O)CCC4=C3[C@@H](c3ccc(N(C)C)cc3)C[C@@]21C [UPA, Ulipristal acetate]
seminal vesicles finding (rat; dose-levels of 1, 3 and 10 mg/kg/day): contraction
prostate finding (rat; dose-levels of 3 and 10 mg/kg/day (not at 1 mg/kg/day)): contraction
interpretation of decrease in organ weight (mice [1]): suggestive of anti-androgenic like effects
in vivo anti-androgenic activity (in vivo activity profile): anti-androgenic effects
in vivo anti-glucocorticoid activity (in vivo activity profile): no significant anti-glucocorticoid effects
interpretation of decrease in organ weight (mice [2]): suggestive of anti-androgenic like effects
